Data as given in patent US20240158446A1, “CYCLIC COMPOUND HAVING SELECTIVE INHIBITORY ACTION ON KRAS OVER HRAS AND NRAS” (CHUGAI SEIYAKU KABUSHIKI KAISHA, priority 2021, published 2024).

Key:
[1] = target: GDP-bound NRAS wild-type protein (Homo sapiens, UniProt P01111); assay: Binding to NRAS by surface plasmon resonance (SPR), Single Cycle Kinetics; conditions: SPR, GDP-bound NRAS wild-type protein vs GDP-bound KRAS wild-type protein
[2] = target: GDP-bound HRAS wild-type protein (Homo sapiens, UniProt P01112); assay: Binding to HRAS by surface plasmon resonance (SPR), Single Cycle Kinetics; conditions: SPR, GDP-bound HRAS wild-type protein vs GDP-bound KRAS wild-type protein
GDP-bound HRAS wild-type protein, sequence (P01112 whole entry): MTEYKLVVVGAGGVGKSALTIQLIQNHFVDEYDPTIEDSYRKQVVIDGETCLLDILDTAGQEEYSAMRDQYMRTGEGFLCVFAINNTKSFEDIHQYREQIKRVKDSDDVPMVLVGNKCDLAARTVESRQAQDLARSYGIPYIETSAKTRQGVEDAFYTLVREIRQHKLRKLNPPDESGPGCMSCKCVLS

[3] = target: GDP-bound KRAS wild-type protein (Homo sapiens, UniProt P01116); assay: Binding to KRAS by surface plasmon resonance (SPR), Single Cycle Kinetics; conditions: SPR, Single Cycle Kinetics, GDP-bound KRAS wild-type protein; read-out: KRAS KD
GDP-bound KRAS wild-type protein, sequence (P01116 whole entry): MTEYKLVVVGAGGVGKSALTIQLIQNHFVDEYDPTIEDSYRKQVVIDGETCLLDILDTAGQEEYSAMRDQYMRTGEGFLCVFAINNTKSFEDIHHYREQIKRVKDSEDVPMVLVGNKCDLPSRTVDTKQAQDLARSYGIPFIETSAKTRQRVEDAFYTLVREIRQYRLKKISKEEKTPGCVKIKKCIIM

GDP-bound NRAS wild-type protein, sequence (P01111 whole entry): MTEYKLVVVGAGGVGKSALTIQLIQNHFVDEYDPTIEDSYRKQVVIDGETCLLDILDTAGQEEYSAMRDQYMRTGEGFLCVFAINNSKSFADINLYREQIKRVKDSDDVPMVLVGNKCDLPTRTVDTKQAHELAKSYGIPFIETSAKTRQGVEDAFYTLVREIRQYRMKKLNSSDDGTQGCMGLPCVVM

Row | Compound | Kd [3] [nM] | NRAS/KRAS (ratio of KD value for NRAS to KD value for KRAS) [1] | HRAS/KRAS (ratio of KD value for HRAS to KD value for KRAS) [2]
1 | CCCCO[C@H]1CCN2C(=O)[C@H](CCc3cc(F)c(C(F)(F)F)c(F)c3)NC(=O)CN(C)C(=O)[C@H](Cc3ccc(C(F)(F)F)cc3)N3CCCC[C@@H](C3=O)N(C)C(=O)CN(C)C(=O)[C@H]([C@@H](C)CC)NC(=O)[C@H](CC(C)C)N(C)C(=O)C[C@@H](C(=O)N3CCOCC3)N(C)C(=O)[C@H](C3CCCC3)N(C)C(=O)C3(CCC3)NC(=O)[C@H]12 [PP1071] | 0.1 | B (a compound having 3 or more and less than 10 is denoted as B) | B (a compound having 3 or more and less than 10 is denoted as B)
2 | CC[C@H](C)[C@@H]1NC(=O)[C@H](CC(C)C)N(C)C(=O)C[C@@H](C(=O)N2CCOCC2)N(C)C(=O)[C@H](C2CCCC2)N(C)C(=O)C2(CCC2)NC(=O)[C@@H]2[C@@H](OCC3CC3)CCN2C(=O)[C@H](CCc2cc(F)c(C(F)(F)F)c(F)c2)NC(=O)CN(C)C(=O)[C@H](Cc2ccc(C(F)(F)F)cc2)N2CCCC[C@@H](C2=O)N(C)C(=O)CN(C)C1=O [PP1072] | 0.063 | B (a compound having 3 or more and less than 10 is denoted as B) | B (a compound having 3 or more and less than 10 is denoted as B)
3 | CC[C@H](C)[C@@H]1NC(=O)[C@H](CC(C)C)N(C)C(=O)C[C@@H](C(=O)N2CCOCC2)N(C)C(=O)[C@H](C2CCCC2)N(C)C(=O)C2(CCC2)NC(=O)[C@@H]2[C@@H](OCC3CCCC3)CCN2C(=O)[C@H](CCc2cc(F)c(C(F)(F)F)c(F)c2)NC(=O)CN(C)C(=O)[C@H](Cc2ccc(C(F)(F)F)cc2)N2CCCC[C@@H](C2=O)N(C)C(=O)CN(C)C1=O [PP1073] | 0.36 | B (a compound having 3 or more and less than 10 is denoted as B) | B (a compound having 3 or more and less than 10 is denoted as B)
4 | CCO[C@H]1CCN2C(=O)[C@H](CCc3cc(F)c(C(F)(F)F)c(F)c3)NC(=O)CN(C)C(=O)[C@H](Cc3ccc(C(F)(F)F)cc3)N3CCCC[C@@H](C3=O)N(C)C(=O)CN(C)C(=O)[C@H]([C@@H](C)CC)NC(=O)[C@H](CC(C)C)N(C)C(=O)C[C@@H](C(=O)N3CCOCC3)N(C)C(=O)[C@H](C3CCCC3)N(C)C(=O)C3(CCC3)NC(=O)[C@H]12 [PP1076] | 0.068 | B (a compound having 3 or more and less than 10 is denoted as B) | B (a compound having 3 or more and less than 10 is denoted as B)
5 | CCCO[C@H]1CCN2C(=O)[C@H](CCc3cc(F)c(C(F)(F)F)c(F)c3)NC(=O)CN(C)C(=O)[C@H](Cc3ccc(C(F)(F)F)cc3)N3CCCC[C@@H](C3=O)N(C)C(=O)CN(C)C(=O)[C@H]([C@@H](C)CC)NC(=O)[C@H](CC(C)C)N(C)C(=O)C[C@@H](C(=O)N3CCOCC3)N(C)C(=O)[C@H](C3CCCC3)N(C)C(=O)C3(CCC3)NC(=O)[C@H]12 [PP1077] | 0.085 | B (a compound having 3 or more and less than 10 is denoted as B) | B (a compound having 3 or more and less than 10 is denoted as B)
6 | CCO[C@@H]1CCN2C(=O)[C@H](CCc3cc(F)c(C(F)(F)F)c(F)c3)NC(=O)CN(C)C(=O)[C@H](Cc3ccc(C(F)(F)F)cc3)N3CCCC[C@@H](C3=O)N(C)C(=O)CN(C)C(=O)[C@H]([C@@H](C)CC)NC(=O)[C@H](CC(C)C)N(C)C(=O)C[C@@H](C(=O)N3CCOCC3)N(C)C(=O)[C@H](C3CCCC3)N(C)C(=O)C3(CCC3)NC(=O)[C@H]12 [PP1079] | 0.23 | B (a compound having 3 or more and less than 10 is denoted as B) | B (a compound having 3 or more and less than 10 is denoted as B)
7 | CCCO[C@@H]1CCN2C(=O)[C@H](CCc3cc(F)c(C(F)(F)F)c(F)c3)NC(=O)CN(C)C(=O)[C@H](Cc3ccc(C(F)(F)F)cc3)N3CCCC[C@@H](C3=O)N(C)C(=O)CN(C)C(=O)[C@H]([C@@H](C)CC)NC(=O)[C@H](CC(C)C)N(C)C(=O)C[C@@H](C(=O)N3CCOCC3)N(C)C(=O)[C@H](C3CCCC3)N(C)C(=O)C3(CCC3)NC(=O)[C@H]12 [PP1080] | 0.24 | B (a compound having 3 or more and less than 10 is denoted as B) | B (a compound having 3 or more and less than 10 is denoted as B)

Now from value to compound, other results behind:

Row | Kd [3] [nM] | Compound | NRAS/KRAS (ratio of KD value for NRAS to KD value for KRAS) [1] | HRAS/KRAS (ratio of KD value for HRAS to KD value for KRAS) [2]
8 | 1.1 | CCO[C@H]1CCN2C(=O)[C@H](CCc3cc(F)c(C(F)(F)F)c(F)c3)NC(=O)CN(C)C(=O)[C@H](Cc3ccc(C(F)(F)F)cc3)N3CCCCC[C@@H](C3=O)N(C)C(=O)CN(C)C(=O)[C@H]([C@@H](C)CC)NC(=O)[C@H](CC(C)C)N(C)C(=O)C[C@@H](C(=O)N3CCOCC3)N(C)C(=O)[C@H](C3CCCC3)N(C)C(=O)C3(CCC3)NC(=O)[C@H]12 [PP1068] | A (a compound having 10 or more and less than 20 is denoted as A) | B (a compound having 3 or more and less than 10 is denoted as B)
9 | 2.5 | CCCO[C@H]1CCN2C(=O)[C@H](CCc3cc(F)c(C(F)(F)F)c(F)c3)NC(=O)CN(C)C(=O)[C@H](Cc3ccc(C(F)(F)F)cc3)N3CCCCC[C@@H](C3=O)N(C)C(=O)CN(C)C(=O)[C@H]([C@@H](C)CC)NC(=O)[C@H](CC(C)C)N(C)C(=O)C[C@@H](C(=O)N3CCOCC3)N(C)C(=O)[C@H](C3CCCC3)N(C)C(=O)C3(CCC3)NC(=O)[C@H]12 [PP1069] | A (a compound having 10 or more and less than 20 is denoted as A) | B (a compound having 3 or more and less than 10 is denoted as B)
10 | 0.066 | CC[C@H](C)[C@@H]1NC(=O)[C@H](CC(C)C)N(C)C(=O)C[C@@H](C(=O)N2CCOCC2)N(C)C(=O)[C@H](C2CCCC2)N(C)C(=O)C2(CCC2)NC(=O)[C@@H]2[C@@H](OC)CCN2C(=O)[C@H](CCc2cc(F)c(C(F)(F)F)c(F)c2)NC(=O)CN(C)C(=O)[C@H](Cc2ccc(C(F)(F)F)cc2)N2CCCC[C@@H](C2=O)N(C)C(=O)CN(C)C1=O [PP1075] | B (a compound having 3 or more and less than 10 is denoted as B) | B (a compound having 3 or more and less than 10 is denoted as B)
11 | 0.95 | CC[C@H](C)[C@@H]1NC(=O)[C@H](CC(C)C)N(C)C(=O)C[C@@H](C(=O)N2CCOCC2)N(C)C(=O)[C@H](C2CCCC2)N(C)C(=O)C2(CCC2)NC(=O)[C@@H]2[C@H](OC)CCN2C(=O)[C@H](CCc2cc(F)c(C(F)(F)F)c(F)c2)NC(=O)CN(C)C(=O)[C@H](Cc2ccc(C(F)(F)F)cc2)N2CCCCC[C@@H](C2=O)N(C)C(=O)CN(C)C1=O [PP1085] | A (a compound having 10 or more and less than 20 is denoted as A) | A (a compound having 10 or more and less than 20 is denoted as A)
